The structures appear in SMILES notation. Active and inactive are the calls of the source. The calls are words filed in the database; no cut-off is given here.

In data set [1] the test system is NCI-H460. Nature of the data set: Induction of cell cycle arrest in human NCI-H460 cells assessed as accumulation at G0/G1 phase at 1 uM incubated for 24 hrs by propidium iodide staining based flow cytometry (reference value: 53.97 %). Type of data set: functional. Background: In flow cytometry, cells or beads pass a laser one at a time.
The test system of data set [2] is NCI-H460. Nature of the data set: Induction of apoptosis in human NCI-H460 cells assessed as viable cells at 1 uM after 48 hrs by Annexin V-FITC/propidium iodide staining based flow cytometric analysis (reference value: 91.528 %). The format is functional. The note with it: read-out: Activity.
For data set [3], the system named is NCI-H460. Kind of data set: Antitumor activity against human NCI-H460 cells xenografted in nude BABL/c mouse assessed as tumor growth inhibition at 20 mg/kg, po administered once daily and measured every two days by caliper method relative to control. Type of data set: functional. Conditions: 48 h, read-out: TGI. Background: A xenograft is tissue or cells of one species grown in another, often human tumour cells in immunodeficient mice.

The nature of data set [4]: Toxicity in nude BALB/c mouse xenografted with C26 cells assessed as abnormalities in heart size and morphology at 50 mg/kg, po administered once daily. Conditions: in vivo. The format is organism-based.
The subject of data set [5] is NCI-H460. Nature of the data set: Induction of apoptosis in human NCI-H460 cells assessed as early apoptotic cells at 1 uM after 48 hrs by Annexin V-FITC/propidium iodide staining based flow cytometric analysis (reference value: 3.980 %). Type of data set: functional.
In data set [6] the test system is NCI-H460. Nature of the data set: Antitumor activity against human NCI-H460 cells xenografted in nude BABL/c mouse assessed as tumor growth inhibition at 40 mg/kg, po administered once daily and measured every two days by caliper method relative to control. Type of data set: functional. Conditions: 48 h, read-out: TGI.
Data set [7] is described as follows: Toxicity in nude BALB/c mouse xenografted with C26 cells assessed as abnormalities in liver size and morphology at 50 mg/kg, po administered once daily. The format is organism-based. Conditions: in vivo.
For data set [8], the system named is NCI-H460. Kind of data set: Induction of apoptosis in human NCI-H460 cells assessed as necrotic cells at 2 uM after 48 hrs by Annexin V-FITC/propidium iodide staining based flow cytometric analysis (reference value: 0.498 %). Type of data set: functional.
The subject of data set [9] is NCI-H460. Kind of data set: Induction of cell cycle arrest in human NCI-H460 cells assessed as accumulation at G0/G1 phase at 0.5 uM incubated for 24 hrs by propidium iodide staining based flow cytometry (reference value: 53.97 %). The format is functional.
Data set [10] has as its system NCI-H460. Kind of data set: Induction of cell cycle arrest in human NCI-H460 cells assessed as accumulation at G0/G1 phase at 5 uM incubated for 24 hrs by propidium iodide staining based flow cytometry (reference value: 53.97 %). Type of data set: functional.
Data set [11] concerns NCI-H460. Nature of the data set: Induction of apoptosis in human NCI-H460 cells assessed as necrotic cells at 1 uM after 48 hrs by Annexin V-FITC/propidium iodide staining based flow cytometric analysis (reference value: 0.498 %). Type of data set: functional.
In data set [12] the test system is NCI-H460. Nature of the data set: Induction of autophagy-induced cell death in human H460 cells at 0.04 to 5 uM after 24 hrs in presence of chloroquine diphosphate by MTT assay. The format is functional, cell-based. The note with it: dose 0.04-5 µM. (In general: Formazan colour is commonly taken as a measure of viable cells.)
Data set [13] relates to NCI-H460. Nature of the data set: Induction of apoptosis in human NCI-H460 cells assessed as necrotic cells at 5 uM after 48 hrs by Annexin V-FITC/propidium iodide staining based flow cytometric analysis (reference value: 0.498 %). Type of data set: functional.
Data set [14] deals with NCI-H460. Nature of the data set: Induction of cell cycle arrest in human NCI-H460 cells assessed as accumulation at G2/M phase at 0.5 uM incubated for 24 hrs by propidium iodide staining based flow cytometry (reference value: 16.71 %). Type of data set: functional.
Data set [15] deals with NCI-H1975. Nature of the data set: Antiproliferative activity against human NCI-H1975 cells assessed as reduction in cell viability after 72 hrs by MTT assay. Type of data set: functional, cell-based. The note with it: NCI-H1975, 72 h.
Data set [16] deals with L929. Kind of data set: Cytotoxicity against mouse L929 cells. The format is cell-based.

For orientation: IC50 means the point on the concentration scale where inhibition reaches its midpoint. As to `C=CCc1ccc(OC(C)C)c(-c2cc(CC=C)cc(CN3CCC(N)CC3)c2O)c1`, the Activity in data set [1] is 56.47%; in [4] it was “Non-Toxic”; in data set [5] it was 4.467%; in [7], “Non-Toxic”; in data set [8], 0.874%; in data set [9], 54.79%. Also, the Activity in data set [10] stood at 59.89%; in data set [11], 0.394%; in [13], 0.608%; in data set [14], 21.64%. Moreover, the viability at 1 µM in [2] was found to be 91.1%. Also, the inhibition in vivo at 20 mg/kg in data set [3] was 33.5%. The inhibition in vivo at 40 mg/kg in [6] turned out to be 56.8%. Besides, the outcome in [12] was Active. Moreover, the IC50 in data set [15] was 0.93 µM; in data set [16], 6.24 µM.

Source of the values: ChEMBL document CHEMBL4732067, “Synthesis and evaluation of new compounds bearing 3-(4-aminopiperidin-1-yl)methyl magnolol scaffold as anticancer agents for the treatment of non-small cell lung cancer via targeting autophagy” (Eur J Med Chem, 2021).
